Assay results from patent US20040029254A1, “Method of screening anti-bacterial agents for effectiveness in treating persistant intracellular infections” (University of Washington, priority 2002, published 2004).
In brackets after ≈: the same amount, converted by molar mass. Several values for one entry are separate records, joined by “and”; a condition that tells them apart may be missing. Equal values may be shown once. Read-outs that look alike come from different tables or passages of the source.

Columns and labels:
Assay type in all cases: cell-based
[1] = system: C. trachomatis serovar D strain; experiment: Comparison of MIC, MCC, MCC3 and MCC3/MIC ratio in McCoy cells; settings: for MIC: Chlamydia trachomatis
[2] = system: Chlamydia trachomatis clinical isolates; experiment: Anti-bacterial susceptibilities of clinical isolates; settings: for MIC: Chlamydia trachomatis, read-out: MIC (microtiter)
[3] = system: C. pneumoniae TW-183, CWL-029; experiment: Anti-bacterial susceptibilities of reference strains; settings: for MIC: Chlamydia pneumoniae, HEp-2 cells, read-out: MIC (microtiter)
[4] = system: clinical isolates of C. trachomatis; experiment: microbe, parasite or virus in culture
[5] = system: C. trachomatis L2 (LGV serovar); experiment: Anti-bacterial susceptibilities of reference strains; settings: Chlamydia trachomatis; McCoy cells; read-out: MIC (microtiter)
[6] = system: C. trachomatis serovar D (strain UW-3); experiment: Effect of inoculum size on doxycycline MIC, MCC and MCC3
[7] = system: C. trachomatis B,D,E,F,G,H,I,Ia,J,K (human genital serovars); experiment: Anti-bacterial susceptibilities of reference strains; settings: Chlamydia trachomatis; McCoy cells; read-out: MIC (microtiter)
C. psittaci 6BC, GPIC = experiment: microbe, parasite or virus in culture; settings: Chlamydia psittaci, read-out: MIC (microtiter)
[8] = system: C. trachomatis MoPn (mouse pneumonitis strain); experiment: Anti-bacterial susceptibilities of reference strains; settings: Chlamydia trachomatis; McCoy cells; read-out: MIC (microtiter)
[9] = system: Chlamydia trachomatis serovar D; experiment: microbe, parasite or virus in culture
[10] = CDC strains sensitive controls (n = 2), McCoy cells
[11] = CDC strains treatment failures (n = 2), McCoy cells
[12] = Recurrent same serovar isolates (n = 6), McCoy cells
[13] = Single isolates (n = 30), McCoy cells
[14] = Treatment failure isolates (n = 6), McCoy cells
[15] = CDC strains treatment failures (n = 2), multi-drug resistant at CDC, McCoy cells
[16] = inoculum 0.3125 × 10^3 IFU/well

CO[C@H]1/C=C/O[C@@]2(C)Oc3c(C)c(O)c4c(O)c(c(/C=N/N5CCN(C)CC5)c(O)c4c3C2=O)NC(=O)/C(C)=C\C=C\[C@H](C)[C@H](O)[C@@H](C)[C@@H](O)[C@@H](C)[C@H](OC(C)=O)[C@@H]1C [Rifampin, rifampin]
MIC ([1]; McCoy cells, read-out: MIC): 16 ng/mL | MCC ([1]; McCoy cells): 0.5 µg/mL | MCC3 ([1]; McCoy cells): 4 µg/mL | MCC3/MIC ([1]; McCoy cells): 250

CC[C@H]1OC(=O)[C@H](C)[C@@H](O[C@H]2C[C@@](C)(OC)[C@@H](O)[C@H](C)O2)[C@H](C)[C@@H](O[C@@H]2O[C@H](C)C[C@H](N(C)C)[C@H]2O)[C@](C)(O)C[C@@H](C)CN(C)[C@H](C)[C@@H](O)[C@]1(C)O [Azithromycin, azithromycin]
MCC3 (shell vial) [2, 10]: 64 µg/mL | MCC (microtiter) [2, 10]: 0.25 to 0.5 µg/mL | MCC (shell vial) [2, 10]: >8 µg/mL | MCC3 (shell vial) [2, 11]: 64 µg/mL | MCC (microtiter) [2, 11]: 0.25 to 0.5 µg/mL | MCC (shell vial) [2, 11]: >8 µg/mL | MCC3 (shell vial) [2, 12]: 64 µg/mL | MCC (microtiter) [2, 12]: 0.25 to 0.5 µg/mL | MCC (shell vial) [2, 12]: >8 µg/mL | MCC3 (shell vial) [2, 13]: 64 µg/mL | MCC (microtiter) [2, 13]: 0.25 to 0.5 µg/mL | MCC (shell vial) [2, 13]: >8 µg/mL | MCC3 (shell vial) [2, 14]: 64 µg/mL | MCC (microtiter) [2, 14]: 0.25 to 0.5 µg/mL | MCC (shell vial) [2, 14]: >8 µg/mL | MCC ([1]; McCoy cells): 8 µg/mL | MCC3 ([1]; McCoy cells): 64 µg/mL | MCC1 (shell vial) [3]: 4 to 8 µg/mL | MCC3 (shell vial) [3]: 64 µg/mL | MCC (microtiter) [3]: 0.25 µg/mL

CC[C@H]1OC(=O)[C@H](C)[C@@H](O[C@H]2C[C@@](C)(OC)[C@@H](O)[C@H](C)O2)[C@H](C)[C@@H](O[C@@H]2O[C@H](C)C[C@H](N(C)C)[C@H]2O)[C@](C)(O)C[C@@H](C)C(=O)[C@H](C)[C@@H](O)[C@]1(C)O [Erythromycin, erythromycin]
MIC ([1]; McCoy cells, read-out: MIC): 500 ng/mL | MCC ([1]; McCoy cells): 8 µg/mL

CO[C@H]1/C=C/O[C@@]2(C)Oc3c(C)c(O)c4c(=O)c(c5oc6cc(N7CCN(CC(C)C)CC7)cc(O)c6nc-5c4c3C2=O)NC(=O)/C(C)=C\C=C\[C@H](C)[C@H](O)[C@@H](C)[C@@H](O)[C@@H](C)[C@H](OC(C)=O)[C@@H]1C [Rifalazil, rifalazil]
MCC3/MIC [1]: 16 | MIC ([1]; McCoy cells, read-out: MIC): 0.25 ng/mL | MCC ([1]; McCoy cells): 0.002 µg/mL | MCC3 ([1]; McCoy cells): 0.004 µg/mL | anti-chlamydial activity in words ([1]; McCoy cells, compared with other drugs): highly active | MCC3/MIC [4]: 16 | anti-chlamydial activity in words [4]: highly active | MIC ([4]; Chlamydia trachomatis): 0.25 to 5 ng/mL (≈ 0.266 to 5.31 nM)

C[C@H]1c2cccc(O)c2C(=O)C2=C(O)[C@]3(O)C(=O)C(C(N)=O)=C(O)[C@@H](N(C)C)[C@@H]3[C@@H](O)[C@@H]21 [Doxycycline, doxycycline]
MCC3 (shell vial) [2, 10]: 16 to 64 µg/mL | MCC (microtiter) [2, 10]: 0.125 to 0.25 µg/mL | MCC (shell vial) [2, 10]: >8 µg/mL | MIC (microtiter) [2, 10]: 64 to 125 ng/mL | MIC (microtiter) [2, 15]: 64 to 125 ng/mL | MCC3 (shell vial) [2, 11]: 16 to 64 µg/mL | MCC (microtiter) [2, 11]: 0.125 to 0.25 µg/mL | MCC (shell vial) [2, 11]: >8 µg/mL | MIC [2]: 64 to 125 ng/mL (≈ 144 to 281 nM) | MCC3 (shell vial) [2, 12]: 16 to 64 µg/mL | MCC (microtiter) [2, 12]: 0.125 to 0.25 µg/mL | MCC (shell vial) [2, 12]: >8 µg/mL | MCC3 (shell vial) [2, 13]: 16 to 64 µg/mL | MCC (microtiter) [2, 13]: 0.125 to 0.25 µg/mL | MCC (shell vial) [2, 13]: >8 µg/mL | MIC (microtiter) [2, 13]: 64 to 125 ng/mL | MCC3 (shell vial) [2, 14]: 16 to 64 µg/mL | MCC (microtiter) [2, 14]: 0.125 to 0.25 µg/mL | MCC (shell vial) [2, 14]: >8 µg/mL | MIC (microtiter) [2, 14]: 64 to 125 ng/mL | MIC [5]: 64 ng/mL (≈ 144 nM) | MIC ([6]; Chlamydia trachomatis, inoculum 80 × 10^3 IFU/well, read-out: MIC): 64 ng/mL (≈ 144 nM) | MCC [6, 16]: 0.064 µg/mL | MCC3 [6, 16]: 0.064 µg/mL | MIC [6, 16]: 64 ng/mL (≈ 144 nM) | MCC ([6]; inoculum 0.625 × 10^3 IFU/well): 0.064 µg/mL | MCC3 ([6]; inoculum 0.625 × 10^3 IFU/well): 0.064 µg/mL | MIC ([6]; inoculum 0.625 × 10^3 IFU/well): 64 ng/mL (≈ 144 nM) | MCC ([6]; inoculum 5 × 10^3 IFU/well): >8 µg/mL | MCC3 ([6]; inoculum 5 × 10^3 IFU/well): 64 µg/mL | MIC ([6]; inoculum 5 × 10^3 IFU/well): 64 ng/mL (≈ 144 nM) | MCC ([6]; inoculum 10 × 10^3 IFU/well): >8 µg/mL | MCC3 ([6]; inoculum 10 × 10^3 IFU/well): 64 µg/mL | MIC ([6]; inoculum 10 × 10^3 IFU/well): 64 ng/mL (≈ 144 nM) | MCC ([6]; inoculum 20 × 10^3 IFU/well): >8 µg/mL | MCC3 ([6]; inoculum 20 × 10^3 IFU/well): 64 µg/mL | MIC ([6]; inoculum 20 × 10^3 IFU/well): 64 ng/mL (≈ 144 nM) | MCC ([6]; inoculum 40 × 10^3 IFU/well): >8 µg/mL | MCC3 ([6]; inoculum 40 × 10^3 IFU/well): 64 µg/mL | MIC ([6]; inoculum 40 × 10^3 IFU/well): 64 ng/mL (≈ 144 nM) | MCC ([6]; inoculum 80 × 10^3 IFU/well): >8 µg/mL | MCC3 ([6]; inoculum 80 × 10^3 IFU/well): 64 µg/mL | MCC ([6]; inoculum 160 × 10^3 IFU/well): >8 µg/mL | MCC3 ([6]; inoculum 160 × 10^3 IFU/well): 64 µg/mL | MIC ([6]; inoculum 160 × 10^3 IFU/well): 64 ng/mL (≈ 144 nM) | MCC ([6]; inoculum 320 × 10^3 IFU/well): >8 µg/mL | MCC3 ([6]; inoculum 320 × 10^3 IFU/well): 64 µg/mL | MIC ([6]; inoculum 320 × 10^3 IFU/well): 64 ng/mL (≈ 144 nM) | MCC ([6]; inoculum […] 10^3 IFU/well): 0.064 µg/mL | MCC3 ([6]; inoculum […] 10^3 IFU/well): 0.064 µg/mL | MIC ([6]; inoculum […] 10^3 IFU/well): 64 ng/mL (≈ 144 nM) | MIC [7]: 64 ng/mL (≈ 144 nM) | MCC3/MIC [1]: 1000 | MIC ([1]; McCoy cells, read-out: MIC): 64 ng/mL | MCC ([1]; McCoy cells): 8 µg/mL | MCC3 ([1]; McCoy cells): 64 µg/mL | MIC (C. psittaci 6BC, GPIC): 64 ng/mL (≈ 144 nM) | MCC3/MIC [4]: 1000 | MIC ([4]; Chlamydia trachomatis): 64 to 125 ng/mL (≈ 144 to 281 nM) | MIC [8]: 64 ng/mL (≈ 144 nM) | MCC1 (shell vial) [3]: 4 to 8 µg/mL | MCC3 (shell vial) [3]: 32 to 64 µg/mL | MCC (microtiter) [3]: 0.125 µg/mL | MIC [3]: 64 ng/mL (≈ 144 nM)

CC1COc2c(N3CCN(C)CC3)c(F)cc3c(=O)c(C(=O)O)cn1c23 (stereo not drawn) [Ofloxacin, ofloxacin]
MCC3 (shell vial) [2, 10]: >128 µg/mL | MCC (microtiter) [2, 10]: 1 to 2 µg/mL | MCC (shell vial) [2, 10]: >8 µg/mL | MIC (microtiter) [2, 10]: 500 to 1000 ng/mL | MIC (microtiter) [2, 15]: 500 to 1000 ng/mL | MCC3 (shell vial) [2, 11]: >128 µg/mL | MCC (microtiter) [2, 11]: 1 to 2 µg/mL | MCC (shell vial) [2, 11]: >8 µg/mL | MIC [2, 12]: 500 to 1000 ng/mL (≈ 1380 to 2770 nM) | MCC3 (shell vial) [2, 12]: >128 µg/mL | MCC (microtiter) [2, 12]: 1 to 2 µg/mL | MCC (shell vial) [2, 12]: >8 µg/mL | MCC3 (shell vial) [2, 13]: >128 µg/mL | MCC (microtiter) [2, 13]: 1 to 2 µg/mL | MCC (shell vial) [2, 13]: >8 µg/mL | MIC (microtiter) [2, 13]: 500 to 1000 ng/mL | MCC3 (shell vial) [2, 14]: >128 µg/mL | MCC (microtiter) [2, 14]: 1 to 2 µg/mL | MCC (shell vial) [2, 14]: >8 µg/mL | MIC (microtiter) [2, 14]: 500 to 1000 ng/mL | MIC [5]: 500 ng/mL (≈ 1380 nM) | MIC [7]: 500 ng/mL (≈ 1380 nM) | MCC3 [1]: 128 µg/mL | MCC3/MIC [1]: 128 | MIC ([1]; McCoy cells, read-out: MIC): 1000 ng/mL | MCC ([1]; McCoy cells): 16 µg/mL | MIC (C. psittaci 6BC, GPIC): 500 ng/mL (≈ 1380 nM) | MCC3/MIC [4]: 128 | MIC ([4]; Chlamydia trachomatis): 1000 to 2000 ng/mL (≈ 2770 to 5530 nM) | MIC [8]: 500 ng/mL (≈ 1380 nM) | MCC1 (shell vial) [3]: >8 µg/mL | MCC3 (shell vial) [3]: >128 µg/mL | MCC (microtiter) [3]: 1.0 µg/mL | MIC [3]: 500 ng/mL (≈ 1380 nM) | MCC [9]: >8 µg/mL and 4 µg/mL and 8 µg/mL

CN(C)[C@@H]1C(O)=C(C(N)=O)C(=O)[C@@]2(O)C(O)=C3C(=O)c4c(O)cccc4[C@@](C)(O)[C@H]3C[C@@H]12 [Tetracycline, tetracycline]
MCC [1]: 16 µg/mL | MCC3 [1]: 128 µg/mL | MCC3/MIC [1]: 128 | MIC [1]: 250 ng/mL | MIC ([9]; Chlamydia trachomatis): 250 ng/mL (≈ 563 nM)

CCCN1CCN(c2cc(O)c3nc4c5c6c7c(C)c(O)c5c(=O)c(c-4oc3c2)NC(=O)/C(C)=C\C=C\[C@H](C)[C@H](O)[C@@H](C)[C@@H](O)[C@@H](C)[C@H](OC(C)=O)[C@H](C)[C@@H](OC)/C=C/O[C@@](C)(O7)C6=O)CC1 [KRM-1657]
MCC3/MIC [4]: 16 | MIC [4]: 0.064 to 0.125 ng/mL | anti-chlamydial activity in words [4]: highly active
